Measurements from patent US8785638B2, “Thieno [2, 3-B] pyridine derivatives as viral replication inhibitors” (Katholieke Universiteit Leuven, priority 2009, dated 2014).
Where two headings read alike, the source gives them in different places.

Tests used:
[1] = biological target: LEDGF/p75-HIV-1 integrase interaction (Human immunodeficiency virus type 1 group M subtype B (isolate HXB2) (HIV-1), UniProt P04585); experiment: AlphaScreen assay of LEDGF-integrase interaction inhibition; format: binding
Experimental: Alphascreen Assay to Measure the LEDGF-Integrase Interaction Inhibitory Activity of Compounds of the Invention
The AlphaScreen assay was performed according to the manufacturer's protocol (Perkin Elmer, Benelux). Reactions were performed in 25 μl final volume in 384-well Optiwell™ microtiter plates (Perkin Elmer). The reaction buffer contained 25 mM Tris-HCl (pH 7.4), 150 mM NaCl, 1 mM MgCl2, 0.01% (v/v) Tween-20 and 0.1% (w/v) bovine serum albumin. His6-tagged integrase (300 nM final concentration) was incubated with the compounds for 30 min at 4° C. The compounds were added at varying concentrations spanning a wide range from 0.1 up to 100 μM. Afterwards 100 nM flag-LEDGF/p75 was added and incubation was prolonged for an additional hour at 4° C. Subsequently 5 μl of Ni-chelate-coated acceptor beads and 5 μl anti-flag donor beads were added to a final concentration of 20 μg/ml of both beads. Proteins and beads were incubated for 1 h at 30° C. in order to allow association to occur. Exposure of the reaction to direct light was omitted as much as possible and the emission of light from the acceptor beads was measured in the EnVision plate reader (Perkin Elmer, Benelux) and analyzed using the EnVision manager software. IN/DNA binding was analyzed in a similar setting using His6-tagged integrase (1 μM final concentration) and an oligodeoxynucleotide mimicking the IN ELISA oligonucleotide substrate (30 nM final concentration). Counterscreens with JPO2 or PogZ, respectively, were essentially performed as described previously.
His6-tagged HIV-1 integrase, 3xflag-tagged LEDGF/p75, MBP-JPO2 and MBP-PogZ were purified for AlphaScreen applications as described previously 23,25,56.

[2] = tested on: HIV-1 (IIIB), HIV-1 (NL4.3); experiment: microbe, parasite or virus in culture; format: cell-based; conditions: for EC50: Human immunodeficiency virus 1, IIIB, MT4, MT-4 cells, 50% protection against HIV-induced cytopathogenic effect, MTT; for SI: selectivity index, ratio of CC50 to EC50
Experimental: (§1) A rapid and automated assay procedure was used for the in vitro evaluation of anti-HIV agents. An HTLV-1 transformed T4-cell line MT-4, which was previously shown to be highly susceptible to and permissive for HIV infection, served as the target cell line. Inhibition of the HIV-induced cytopathogenic effect was used as the end point. The viabitlity of both HIV- and mock-infected cells was assessed spectrophotometrically via in situ reduction of 3-(4,5-dimethylthiazol-2-yl)-2,5-diphenyltetrazolium bromide (MTT). The 50% cytotoxic concentration (CC50 in μM or μg/ml) was defined as the concentration of compound that reduced the absorbance of the mock-infected control sample by 50%. The percent protection achieved by the compound in HIV-infected cells was calculated by the following formula:
(§2) [formula] whereby (ODT)HIV is the optical density measured with a given concentration of the test compound in HIV-infected cells; (ODC)HIV is the optical density measured for the control untreated HIV-infected cells; (ODC)MOCK is the optical density measured for the control untreated mock-infected cells; all optical density values were determined at 540 nm. The dose achieving 50% protection according to the above formula was defined as the 50% inhibitory concentration (EC50 in μM or μg/ml). The ratio of CC50 to EC50 was defined as the selectivity index (SI). […] Examples of inhibition of cell proliferation by particular compounds of the invention can be found by looking at the respective CC50 values in the MT-4 cell line. Cells:
(§3) MT-4 cells (Miyoshi et al., 1982) were grown and maintained in RPMI 1640 medium supplemented with 10% heat-inactivated fetal calf serum, 2 mM I-glutamine, 0.1% sodium bicarbonate, and 20 μg of gentamicin per ml. Alternatively, the MT-4 cells may also be grown in RPMI 1640 medium supplemented with 10% FCS and 20 μg/ml of gentamicin (RPMI-complete).
The HIV-1 (IIIB) strain (Popovic et al., 1984) as well as the HIV-1 (NL4.3) strain (Adachi et al., J. Virol. 59, 284-291 (1986)) were used.

[3] = Cytotoxicity in mock-infected MT-4 cells (MTT); format: cell-based; conditions: human, 50% cytotoxic concentration
Experimental: as §1, §2, §3

[4] = His6-tagged integrase 300 nM, flag-LEDGF/p75 100 nM, read-out: Alphascreen IC50

Row | Compound | IC50 [1, 4] [µM] | EC50 [2] [µM] | SI [2] | CC50 [3] [µM] | IC50 [1] [µM]
1 | CCCC(C(=O)O)c1c(C)nc2sc3c(c2c1-c1ccccc1F)CCCC3 (stereo not drawn) [Cpd 153, 2-[2-Methyl-4-(2-fluorophenyl)-5,6,7,8-tetrahydro[1]benzothieno[2,3-b]pyridin-3-yl]pentanoic acid] | 43.6 | 17 | >8 | > 125 | –
2 | CCCC(C(=O)O)c1c(C)nc2sc3c(c2c1-c1cc2ccccc2o1)CCCC3 (stereo not drawn) [Cpd 154, 2-[2-Methyl-4-(benzofuran-2-yl)-5,6,7,8-tetrahydro[1]benzothieno[2,3-b]pyridin-3-yl]pentanoic acid] | 8.12 | 6.28 | 14 | 90.5 | –
3 | Cc1ccc(-c2c(C(CCc3ccccc3)C(=O)O)c(C)nc3sc4c(c23)CCCC4)cc1 (stereo not drawn) [Cpd 155, 2-[2-Methyl-4-(p-tolyl)-5,6,7,8-tetrahydro[1]benzothieno[2,3-b]pyridin-3-yl]-4-phenylbutanoic acid] | 81.9 | > 22 | – | 22 | –
4 | Cc1ccc(-c2c(C(C(=O)O)C(C)C)c(C)nc3sc4c(c23)CCCC4)cc1 (stereo not drawn) [Cpd 156, 2-[2-Methyl-4-(p-tolyl)-5,6,7,8-tetrahydro[1]benzothieno[2,3-b]pyridin-3-yl]-3-methylbutanoic acid] | 59.6 | > 98 | – | 98 | –
5 | CCC(C)C(C(=O)O)c1c(C)nc2sc3c(c2c1-c1ccc(C)cc1)CCCC3 (stereo not drawn) [Cpd 157, 2-[2-Methyl-4-(p-tolyl)-5,6,7,8-tetrahydro[1]benzothieno[2,3-b]pyridin-3-yl]-3-methylpentanoic acid] | 26.4 | > 35 | – | 35 | –
6 | Cc1ccc(-c2c(C(CCC(F)(F)F)C(=O)O)c(C)nc3sc4c(c23)CCCC4)cc1 (stereo not drawn) [Cpd 158, 2-[2-Methyl-4-(p-tolyl)-5,6,7,8-tetrahydro[1]benzothieno[2,3-b]pyridin-3-yl]-5,5,5-trifluoropentanoic acid] | 13.5 | 5.48 | 11 | 58.5 | –
7 | C#CCC(C(=O)O)c1c(C)nc2sc3c(c2c1-c1ccc(C)cc1)CCCC3 (stereo not drawn) [Cpd 159, 2-[2-Methyl-4-(p-tolyl)-5,6,7,8-tetrahydro[1]benzothieno[2,3-b]pyridin-3-yl]-pent-4-yn-oic acid] | 13.3 | 7.54 | 13 | 99.5 | –
8 | CCCC(C(=O)O)c1c(C)nc2sc3c(c2c1-c1ccc(C)cc1OC)CCCC3 (stereo not drawn) [Cpd 160, 2-[2-methyl-4-(2-methoxy-4-methylphenyl)-5,6,7,8-tetrahydro[1]benzothieno[2,3-b]pyridin-3-yl]pentanoic acid] | 17.7 | 14.4 | 5 | 74 | –
9 | CCCC(C(=O)O)c1c(C)nc2sc3c(c2c1-c1ccc(C)cc1O)CCCC3.N (stereo not drawn) [Cpd 161, 2-[2-Methyl-4-(2-hydroxy-4-methylphenyl)-5,6,7,8-tetrahydro[1]benzothieno[2,3-b]pyridin-3-yl]pentanoate ammonium salt] | – | 0.147 | 1061 | 157 | 0.0554
10 | Cc1ccc(-c2c(C(CC(C)(C)C)C(=O)O)c(C)nc3sc4c(c23)CCCC4)cc1 (stereo not drawn) [Cpd 162, 2-[2-Methyl-4-(p-tolyl)-5,6,7,8-tetrahydro[1]benzothieno[2,3-b]pyridin-3-yl]-4,4-dimethylpentanoic acid] | 1.57 | 0.33 | 217 | 71.7 | –
11 | CCCC(C(=O)O)c1c(C)nc2sc3c(c2c1-c1ccc(C)cc1)CCN(Cc1ccccc1)C3 (stereo not drawn) [Cpd 163, 2-[7-Benzyl-2-methyl-4-(p-tolyl)-5,6,7,8-tetrahydro-9-thia-1,7-diaza-fluoren-3-yl]pentanoic acid] | 4.5 | > 23 | – | 23 | –
12 | Cc1ccc(-c2c(C(CC3CC3)C(=O)O)c(C)nc3sc4c(c23)CCCC4)cc1 (stereo not drawn) [Cpd 165, 2-[2-Methyl-4-(p-tolyl)-5,6,7,8-tetrahydro[1]benzothieno[2,3-b]pyridin-3-yl]-3-cyclopropylpropanoic acid] | < 1 | 0.867 | 102 | 89 | –
13 | CCCC(C(=O)NC#N)c1c(C)nc2sc3c(c2c1-c1ccc(C)cc1)CCCC3 (stereo not drawn) [Cpd 166, N-cyano-2-[2-Methyl-4-p-tolyl-5,6,7,8-tetrahydro[1]benzothieno[2,3-b]pyridin-3-yl]pentanamide] | 3 | > 131 | – | 131 | –
14 | CCCC(C(N)=O)c1c(C)nc2sc3c(c2c1-c1ccc(C)cc1)CCCC3 (stereo not drawn) [Cpd 167, 2-[2-Methyl-4-p-tolyl-5,6,7,8-tetrahydro[1]benzothieno[2,3-b]pyridin-3-yl]pentanamide] | 63.7 | > 26.1 | – | 26.1 | –
15 | Cc1ccc(-c2c(C(OC(C)(C)C)C(=O)O)c(C)nc3sc4c(c23)CCCC4)cc1 (stereo not drawn) [Cpd 170, 2-[2-Methyl-4-p-tolyl-5,6,7,8-tetrahydro[1]benzothieno[2,3-b]pyridin-3-yl]-2-tert-butoxyacetic acid] | 0.05 | 0.0263 | 4429 | 116 | –
16 | CCOC(C(=O)O)c1c(C)nc2sc3c(c2c1-c1ccc(C)cc1)CCCC3 (stereo not drawn) [Cpd 171, 2-[2-Methyl-4-p-tolyl-5,6,7,8-tetrahydro[1]benzothieno[2,3-b]pyridin-3-yl]-2-ethoxyacetic acid] | 1.21 | 0.112 | 1166 | 130 | –
17 | Cc1nc2sc3c(c2c(-c2cccnc2)c1C(OC(C)(C)C)C(=O)O)CCCC3 (stereo not drawn) [Cpd 173, 2-[2-Methyl-4-(pyridin-3-yl)-5,6,7,8-tetrahydro[1]benzothieno[2,3-b]pyridin-3-yl]-2-tert-butoxyacetic acid] | 5.9 | 4.51 | 50 | 225 | –
18 | CCCC(c1nnn[nH]1)c1c(C)nc2sc3c(c2c1-c1ccc(C)cc1)CCCC3 (stereo not drawn) [Cpd 175, 2-Methyl-4-(p-tolyl)-3-[1-(1H-tetrazol-5-yl)butyl]-5,6,7,8-tetrahydro[1]benzothieno[2,3-b]pyridine] | < 1 | 8.89 | 9 | 79.2 | –
19 | Cc1nc2sc3c(c2c(-c2cnn(C)c2)c1C(OC(C)(C)C)C(=O)O)CCCC3 (stereo not drawn) [Cpd 177, 2-[2-methyl-4-(1-methyl-1H-pyrazol-4-yl)-5,6,7,8-tetrahydro[1]benzothieno[2,3-b]pyridin-3-yl]-2-tert-butoxyacetic acid] | 11.7 | 1.17 | >181 | > 212 | –
20 | CCCC(C(=O)O)c1c(CC)nc2sc3c(c2c1-c1ccc(C)cc1)CCCC3 (stereo not drawn) [Cpd 181, 2-[2-ethyl-4-(p-tolyl)-5,6,7,8-tetrahydro[1]benzothieno[2,3-b]pyridin-3-yl]pentanoic acid] | 8.06 | 2.89 | 28 | 81 | –
21 | CCCC(c1c(C)nc2sc3c(c2c1-c1ccc(C)cc1)CCCC3)C1SC(=O)NC1=O (stereo not drawn) [Cpd 182] | – | > 27.3 | – | 27.3 | ~80
22 | Cc1ccc(-c2c(C(OC(C)(C)C)C(=O)O)c(C)nc3sc4c(c23)CCCC4)cn1 (stereo not drawn) [Cpd 184, 2-[2-methyl-4-(6-methylpyridin-3-yl)-5,6,7,8-tetrahydro[1]benzothieno[2,3-b]pyridin-3-yl]-2-tert-butoxyacetic acid] | 3.44 | 0.157 | 1513 | 237 | –
